Experimental data as given in patent US20150017667A1, “MEANS AND METHODS FOR ASSESSING LIVER DISORDERS” (BASF SE, priority 2012, published 2015).
Read-outs that look alike come from different tables or passages of the source. Marks after values point to notes of the source that are not given here.

Key:
female rats [1] = conditions: rat, in vivo
Procedure: (§1) A group of each 5 male and female rats was dosed once daily with the indicated compounds (see Table 5, below for compounds, applied doses and administeration details) over 28 days.
(§2) Each dose group in the studies consisted of five rats per sex. Additional groups of each 5 male and female animals served as controls. Before starting the treatment period, animals, which were 62-64 days old when supplied, were acclimatized to the housing and environmental conditions for 7 days. All animals of the animal population were kept under the same constant temperature (20-24±3° C.) and the same constant humidity (30-70%). The animals of the animal population were fed ad libitum. The food to be used was essentially free of chemical or microbial contaminants. Drinking water was also offered ad libitum. Accordingly, the water was free of chemical and microbial contaminants as laid down in the European Drinking Water Directive 98/83/EG. The illumination period was 12 hours light followed by 12 hours darkness (12 hours light, from 6:00 to 18:00, and 12 hours darkness, from 18:00 to 6:00).
(§3) In the morning of day 7, 14, and 28, blood was taken from the retroorbital venous plexus from fasted anaesthetized animals. From each animal, 1 ml of blood was collected with EDTA as anticoagulant. The samples were centrifuged for generation of plasma. All plasma samples were covered with a N2 atmosphere and then stored at −80° C. until analysis.
(§4) For mass spectrometry-based metabolite profiling analyses plasma samples were extracted and a polar and a non-polar (lipid) fraction was obtained. For GC-MS analysis, the non-polar fraction was treated with methanol under acidic conditions to yield the fatty acid methyl esters. Both fractions were further derivatised with O-methyl-hydroxyamine hydrochloride and pyridine to convert Oxogroups to O-methyloximes and subsequently with a silylating agent before analysis. In LC-MS analysis, both fractions were reconstituted in appropriate solvent mixtures. HPLC was performed by gradient elution on reversed phase separation columns.
(§5) Following comprehensive analytical validation steps, the data for each analyte were normalized against data from pool samples. These samples were run in parallel through the whole process to account for process variability. The significance of treatment group values specific for sex, treatment duration and metabolite was determined by comparing means of the treated groups to the means of the respective untreated control groups using WELCH-test and quantified with treatment ratios versus control and p-values.

female rats [2] = assay: 28-day repeated dose oral toxicity study (OECD 407) with GC-MS/LC-MS plasma metabolite profiling, female rats
Procedure: as §1, §2, §3, §4, §5

male rats = assay: 28-day repeated dose oral toxicity study (OECD 407) with GC-MS/LC-MS plasma metabolite profiling, male rats; format: in vivo, rat
From the text: Drinking water was also offered ad libitum.
The samples were centrifuged for generation of plasma.

CC/C(=C(\c1ccccc1)c1ccc(OCCN(C)C)cc1)c1ccccc1 [Tamoxifen]
Threonine, ratio versus control (female rats [1]): 1.05*
3-Methoxytyrosine, ratio versus control (female rats [2]; day 7): 1.26*
16-Methylheptadecanoic acid, ratio versus control (female rats [2]; day 7): 0.73*
17-Methyloctadecanoic acid, ratio versus control (female rats [2]; day 7): 0.80*
Ketoleucine, ratio versus control (female rats [2]; day 7): 0.92
Normetanephrine, ratio versus control (female rats [2]; day 7): 0.84
Palmitoleic acid (C16:cis[9]1), ratio versus control (female rats [2]; day 7): 0.91
Phosphatidylcholine (C18:0,C20:3), ratio versus control (female rats [2]; day 7): 0.81*
TAG (C18:1,C18:2,C18:3), ratio versus control (female rats [2]; day 7): 2.78*
TAG (C42:9) (DAG-Fragment) (putative), ratio versus control (female rats [2]; day 7): 0.56*
Threonine, ratio versus control (female rats [2]; day 7): 1.17*
Uracil, ratio versus control (female rats [2]; day 7): 0.86*
Xylitol, ratio versus control (female rats [2]; day 7): 1.29*
TAG (C18:2,C18:2), ratio versus control (female rats [2]; day 7 (Table 7a)): 3.21*
Lysophosphatidylcholine (C20:4), ratio versus control (female rats [2]; day 7 (first line of this name, r15)): 0.92*
Lysophosphatidylcholine (C20:4), ratio versus control (female rats [2]; day 7 (second line of this name, r16)): 0.88*
3-Methoxytyrosine, ratio versus control (female rats [2]; day 14): 1.61*
16-Methylheptadecanoic acid, ratio versus control (female rats [2]; day 14): 0.97
17-Methyloctadecanoic acid, ratio versus control (female rats [2]; day 14): 0.92
Ketoleucine, ratio versus control (female rats [2]; day 14): 0.71*
Normetanephrine, ratio versus control (female rats [2]; day 14): 1.15
Palmitoleic acid (C16:cis[9]1), ratio versus control (female rats [2]; day 14): 0.69*
Phosphatidylcholine (C18:0,C20:3), ratio versus control (female rats [2]; day 14): 0.89*
TAG (C18:1,C18:2,C18:3), ratio versus control (female rats [2]; day 14): 2.96*
TAG (C42:9) (DAG-Fragment) (putative), ratio versus control (female rats [2]; day 14): 0.65*
Uracil, ratio versus control (female rats [2]; day 14): 0.86*
Xylitol, ratio versus control (female rats [2]; day 14): 1.63*
TAG (C18:2,C18:2), ratio versus control (female rats [2]; day 14 (Table 7a)): 2.84*
Lysophosphatidylcholine (C20:4), ratio versus control (female rats [2]; day 14 (first line of this name, r15)): 0.96*
Lysophosphatidylcholine (C20:4), ratio versus control (female rats [2]; day 14 (second line of this name, r16)): 0.84*
3-Methoxytyrosine, ratio versus control (female rats [2]; day 28): 1.38*
16-Methylheptadecanoic acid, ratio versus control (female rats [2]; day 28): 0.78*
17-Methyloctadecanoic acid, ratio versus control (female rats [2]; day 28): 0.89*
Ketoleucine, ratio versus control (female rats [2]; day 28): 0.77*
Normetanephrine, ratio versus control (female rats [2]; day 28): 0.89
Palmitoleic acid (C16:cis[9]1), ratio versus control (female rats [2]; day 28): 0.60*
Phosphatidylcholine (C18:0,C20:3), ratio versus control (female rats [2]; day 28): 0.88*
TAG (C18:1,C18:2,C18:3), ratio versus control (female rats [2]; day 28): 2.18*
TAG (C42:9) (DAG-Fragment) (putative), ratio versus control (female rats [2]; day 28): 0.81*
Threonine, ratio versus control (female rats [2]; day 28): 0.98
Uracil, ratio versus control (female rats [2]; day 28): 0.64*
Xylitol, ratio versus control (female rats [2]; day 28): 1.71*
TAG (C18:2,C18:2), ratio versus control (female rats [2]; day 28 (Table 7a)): 2.20*
Lysophosphatidylcholine (C20:4), ratio versus control (female rats [2]; day 28 (first line of this name, r15)): 0.91*
Lysophosphatidylcholine (C20:4), ratio versus control (female rats [2]; day 28 (second line of this name, r16)): 0.81*
16-Methylheptadecanoic acid change in plasma (male rats; m7): 0.58*
17-Methyloctadecanoic acid change in plasma (male rats; m7): 0.61*
Campesterol change in plasma (male rats; m7): 0.59*
Lysophosphatidylcholine (C18:1) change in plasma (male rats; m7): 0.78*
Myristic acid (C14:0) change in plasma (male rats; m7): 0.65*
PC No 04 (putative) change in plasma (male rats; m7): 0.44*
Palmitoleic acid (C16:cis[9]1) change in plasma (male rats; m7): 0.57*
Phosphatidylcholine (C16:0,C20:4) change in plasma (male rats; m7): 0.87*
Phosphatidylcholine (C16:1,C18:2) change in plasma (male rats; m7): 0.76*
Phosphatidylcholine (C18:1,C18:2) change in plasma (male rats; m7): 0.79*
Phosphatidylcholine No 02 change in plasma (male rats; m7): 0.53*
Sphingomyelin (d18:1,C16:0) change in plasma (male rats; m7): 0.66*
Tyrosine change in plasma (male rats; m7): 0.77*
Unknown lipid (28000473) change in plasma (male rats; m7): 0.31*
Unknown lipid (68000034) change in plasma (male rats; m7): 0.74*
Uracil change in plasma (male rats; m7): 0.86*
beta-Sitosterol change in plasma (male rats; m7): 0.75*
Lysophosphatidylcholine (C20:4) change in plasma (male rats; m7, first of two rows with this name (r24)): 0.90*
Lysophosphatidylcholine (C20:4) change in plasma (male rats; m7, second of two rows with this name (r25)): 0.77*
16-Methylheptadecanoic acid change in plasma (male rats; m14): 0.60*
17-Methyloctadecanoic acid change in plasma (male rats; m14): 0.64*
Campesterol change in plasma (male rats; m14): 0.74*
Lysophosphatidylcholine (C18:1) change in plasma (male rats; m14): 0.84*
Myristic acid (C14:0) change in plasma (male rats; m14): 0.60*
PC No 04 (putative) change in plasma (male rats; m14): 0.56*
Palmitoleic acid (C16:cis[9]1) change in plasma (male rats; m14): 0.43*
Phosphatidylcholine (C16:0,C20:4) change in plasma (male rats; m14): 0.96*
Phosphatidylcholine (C16:1,C18:2) change in plasma (male rats; m14): 0.69*
Phosphatidylcholine (C18:1,C18:2) change in plasma (male rats; m14): 0.83*
Phosphatidylcholine No 02 change in plasma (male rats; m14): 0.60*
Sphingomyelin (d18:1,C16:0) change in plasma (male rats; m14): 0.73*
Tyrosine change in plasma (male rats; m14): 0.85*
Unknown lipid (28000473) change in plasma (male rats; m14): 0.46*
Unknown lipid (68000034) change in plasma (male rats; m14): 0.59*
Uracil change in plasma (male rats; m14): 0.75*
beta-Sitosterol change in plasma (male rats; m14): 0.83*
Lysophosphatidylcholine (C20:4) change in plasma (male rats; m14, first of two rows with this name (r24)): 0.89*
Lysophosphatidylcholine (C20:4) change in plasma (male rats; m14, second of two rows with this name (r25)): 0.79*
16-Methylheptadecanoic acid change in plasma (male rats; m28): 0.48*
17-Methyloctadecanoic acid change in plasma (male rats; m28): 0.48*
Campesterol change in plasma (male rats; m28): 0.55*
Lysophosphatidylcholine (C18:1) change in plasma (male rats; m28): 0.81*
Myristic acid (C14:0) change in plasma (male rats; m28): 0.61*
PC No 04 (putative) change in plasma (male rats; m28): 0.54*
Palmitoleic acid (C16:cis[9]1) change in plasma (male rats; m28): 0.32*
Phosphatidylcholine (C16:0,C20:4) change in plasma (male rats; m28): 0.97*
Phosphatidylcholine (C16:1,C18:2) change in plasma (male rats; m28): 0.74*
Phosphatidylcholine (C18:1,C18:2) change in plasma (male rats; m28): 0.99
Phosphatidylcholine No 02 change in plasma (male rats; m28): 0.62*
Sphingomyelin (d18:1,C16:0) change in plasma (male rats; m28): 0.71*
Tyrosine change in plasma (male rats; m28): 0.86
Unknown lipid (28000473) change in plasma (male rats; m28): 0.37*
Unknown lipid (68000034) change in plasma (male rats; m28): 0.45*
Uracil change in plasma (male rats; m28): 0.79*
beta-Sitosterol change in plasma (male rats; m28): 0.73*
Lysophosphatidylcholine (C20:4) change in plasma (male rats; m28, first of two rows with this name (r24)): 0.88*
Lysophosphatidylcholine (C20:4) change in plasma (male rats; m28, second of two rows with this name (r25)): 0.70*
3-Methoxytyrosine, ratio versus control (male rats; plasma, day 7): 1.17*
Serine, ratio versus control (male rats; plasma, day 7): 1.17*
Xylitol, ratio versus control (male rats; plasma, day 7): 1.57*
Threonine, ratio versus control (male rats; plasma, day 7 (Table 7c)): 0.96
3-Methoxytyrosine, ratio versus control (male rats; plasma, day 14): 1.31*
Xylitol, ratio versus control (male rats; plasma, day 14): 2.05*
Threonine, ratio versus control (male rats; plasma, day 14 (Table 7c)): 1.22*
3-Methoxytyrosine, ratio versus control (male rats; plasma, day 28): 1.39*
Xylitol, ratio versus control (male rats; plasma, day 28): 1.75*
Threonine, ratio versus control (male rats; plasma, day 28 (Table 7c)): 1.10*
